Series [1] is described as follows: Plasma concentrations in volunteers after one tablet of racemate or (S)-enantiomer. The following applies: human, po; for concentration at 4 h: read-out: Konzentrationen nach 4 Stunden; for concentration at 5 h: read-out: Konzentrationen nach 5 Stunden; for concentration at 6 h: read-out: Konzentrationen nach 6 Stunden; for Cmax: read-out: Maximal-Konzentrationen. The format is in vivo, Menschen. The procedure: (§1) Abbildung 1 gibt hierbei die Plasma-Konzentration von AG-EE 623 ZW und AG-EE 624 ZW nach 1,0 mg i.v. AG-EE 388 ZW und Abbildung 2 die Plasma-Konzentration von AG-EE 623 ZW und AG-EE 624 ZW nach 1,0 mg p.o. (Lösung) AG-EE 388 ZW jeweils an 12 freiwilligen männlichen Probanden wieder. […] Dies wirkt sich z.B. bei Applikation einer Tablette mit 2 mg AG-EE 388 ZW bzw. einer Tablette mit 1 mg AG-EE 623 ZW an 12 bzw. 6 Probanden so aus, daß die Maximal-Konzentrationen 84 ± 25 bzw. 28 ± 18 ng/ml sowie die Konzentrationen nach 4 Stunden 19 ± 8 bzw. 0,7 ± 1,0 ng/ml, nach 5 Stunden 13 ± 6 bzw. 0,3 ± 0,7 ng/ml und nach 6 Stunden 10 ± 6 bzw. 0,3 ± 0,7 ng/ml betragen.

Series [2] deals with weiblichen Ratten. As to the kind of experiment: Blood-glucose-lowering effect in female rats. The format is in vivo, Ratte. The settings on record: for blutzuckersenkende Wirkung: female rats. An excerpt:
Die beiden Enantiomeren dieser Verbindung, nämlich (S)(+)-2-Äthoxy-4-[N-[1-(2-piperidino-phenyl)-3-methyl-1-butyl] aminocarbonylmethyl]-benzoesäure (Code-Nr.: AG-EE 623 ZW) und (R)(-)-2-Äthoxy-4-[N-[1-(2-piperidino-phenyl)-3-methyl-1-butyl]aminocarbonylmethyl]-benzoesäure (Code-Nr.: AG-EE 624 ZW), wurden auf ihre blutzuckersenkende Wirkung an weiblichen Ratten geprüft.

The format of series [3] is in vivo, Menschen. The source says: Auf Grund dieser Ergebnisse an der Ratte erscheint für den Menschen die ausschließliche Verwendung von AG-EE 623 ZW geboten, wodurch die Dosis im Vergleich zur AG-EE 388 ZW-Dosis um 50 % reduziert werden kann. […] Darüber hinaus wurde jedoch bei den Human-Studien gefunden, daß AG-EE 623 ZW überraschende pharmakokinetische Eigenschaften aufweist, die auf Grund der AG-EE 388 ZW-Daten nicht vorhersehbar waren. AG-EE 623 ZW zeigt somit überraschende therapeutische Vorteile gegenüber dem Racemat AG-EE 388 ZW.

On the set-up of series [4]: species or system Menschen. The settings on record: in vivo. On the procedure: as §1
Series [5] relates to Ratten. As to the kind of experiment: Acute oral toxicity in rats, single dose, 14 days observation. The format is in vivo.
Setting [6] is: tablet with 2 mg AG-EE 388 ZW, 12 volunteers.
Setting [7] is: tablet with 1 mg AG-EE 623 ZW, 6 volunteers.

Like-named read-outs stand apart in the source and are kept apart here. Some results are limits rather than exact numbers.

Take `CCOc1cc(CC(=O)NC(CC(C)C)c2ccccc2N2CCCCC2)ccc1C(=O)O` (racemic) [AG-EE 388 ZW, 2-Äthoxy-4-[N-[1-(2-piperidino-phenyl)-3-methyl-1-butyl]aminocarbonylmethyl]-benzoesäure, reference compound]: in series [1] (setting [6]), the concentration at 4 h amounted to 19 ± 8 ng/mL, the concentration at 5 h stood at 13 ± 6 ng/mL, the concentration at 6 h is 10 ± 6 ng/mL and the Cmax came out at 84 ± 25 ng/mL.

On to `CCOc1cc(CC(=O)N[C@@H](CC(C)C)c2ccccc2N2CCCCC2)ccc1C(=O)O` [AG-EE 623 ZW, (S)(+)-2-Äthoxy-4-[N-[1-(2-piperidino-phenyl)-3-methyl-1-butyl]aminocarbonylmethyl]-benzoesäure], for which the “blutzuckersenkende Wirkung” value in series [2] is on record as “wirksame Enantiomere”. For the same molecule, in series [2] (rat), the “Dauer der Wirkung (Wirkung hält an)” value was above 6 Stunden. Further, in series [3] (human), the “Eintritt der blutzuckersenkenden Wirkung” value is reported as “rascher ein als nach AG-EE 388 ZW-Gabe” and the Wirkungsdauer entry is “relativ lange Wirkungsdauer”. Moreover, in series [3] (in vivo), the “Abfall der Spiegel” value is “fallen rascher gegen null als die AG-EE 388 ZW-Spiegel” and the “Plasmaspiegel in Relation zur erzielten Blutzuckersenkung” value is recorded as “wesentlich niedrigere Plasmaspiegel”. In series [4], the “Elimination (Plasma-Konzentration)” value is reported as “wesentlich schneller als das unwirksame Enantiomere, AG-EE 624 ZW, eliminiert”. Further, in series [1] (setting [7]), the concentration at 4 h worked out at 0.7 ng/mL, the concentration at 5 h is 0.3 ng/mL, the concentration at 6 h is 0.3 ng/mL and the Cmax was found to be 28 ± 18 ng/mL. In addition, the Toxizität result in series [5] (rats, 1000 mg/kg p.o.) is given as “praktisch untoxisch”. Besides, the “verstorbene Tiere” value in series [5] (single 1000 mg/kg p.o., suspension in 1% methylcellulose, 5 male and 5 female rats, 14 days) is listed as “kein Tier”.

Turning to `CCOc1cc(CC(=O)N[C@H](CC(C)C)c2ccccc2N2CCCCC2)ccc1C(=O)O` [AG-EE 624 ZW, (R)(-)-2-Äthoxy-4-[N-[1-(2-piperidino-phenyl)-3-methyl-1-butyl]aminocarbonylmethyl]-benzoesäure], the “blutzuckersenkende Wirkung” value in series [2] was “unwirksame Enantiomere”. In addition, in series [4], the “Plasma-Konzentrationen nach Racemat-Gabe” value was “in unerwartet höheren Maximal- und Dauer-Spiegeln anwesend”.

Values taken from patent EP0589874B1, “USE OF (S)(+)-2-ETHOXY-4-[N-[1-(2-PIPERIDINOPHENYL)-3-METHYL-1-BUTYL]AMINOCARBONYLMETHYL]BENZOIC ACID FOR THE PREPARATION OF A LONGLASTING ANTIDIABETIC MEDICAMENT” (Boehringer Ingelheim Pharma KG, priority 1991, dated 1993).
